Results taken from patent US20030055065A1, “Tricyclic amide and urea compounds useful for inhibition of G-protein function and for treatment of proliferative diseases” (priority 1993, published 2003).

Molecular target: T1, farnesyl protein transferase (FPT), partially purified from rat brain (Rattus norvegicus, UniProt Q02293+Q04631)
T1 construct: were partially purified from rat brain by ammonium sulfate fractionation followed by Q-Sepharose
Test: Inhibition of farnesyl protein transferase (transfer of [3H]farnesyl to Ras-CVLS)
Format: biochemical
Conditions: (1.2) μM
Procedure: 1. In vitro enzyme assays: Inhibition of farnesyl protein transferase and geranylgeranyl protein transferase.
Human farnesyl protein transferase was also expressed in E. coli, using cDNA clones encoding both the α and β subunits. […] Human farnesyl protein transferase was partially-purified from the soluble protein fraction of E. coli as described above. […] Two forms of val^12-Ha-Ras protein were prepared as substrates for these enzymes, differing in their carboxy terminal sequence. One form terminated in cysteine-valine-leucine-serine (Ras-CVLS) the other in cystein-valine-leucine-leucine (Ras-CVLL). Ras-CVLS is a substrate for the farnesyl protein transferase while Ras-CVLL is a substrate for geranylgeranyl protein transferase I. The cDNAs encoding these proteins were constructed so that the proteins contain an amino-terminal extension of 6 histidine residues. Both proteins were expressed in Escherichia coli and purified using metal chelate affinity chromatography. The radiolabelled isoprenyl pyrophosphate substrates, [^3H]farnesyl pyrophosphate and [3H]geranylgeranyl pyrophosphate, were purchased from DuPont/New England Nuclear.
The reaction was allowed to proceed for 30 minutes at room temperature and then stopped with 0.5 ml of 4% sodium dodecyl sulfate (SDS) followed by 0.5 ml of cold 30% trichloracetic acid (TCA). Samples were allowed to sit on ice for 45 minutes and precipitated Ras protein was then collected on GF/C filter paper mats using a Brandel cell harvester. […] Percent inhibition was calculated relative to the DMSO vehicle control.

T1 sequence (Q02293 whole entry, one chain of several): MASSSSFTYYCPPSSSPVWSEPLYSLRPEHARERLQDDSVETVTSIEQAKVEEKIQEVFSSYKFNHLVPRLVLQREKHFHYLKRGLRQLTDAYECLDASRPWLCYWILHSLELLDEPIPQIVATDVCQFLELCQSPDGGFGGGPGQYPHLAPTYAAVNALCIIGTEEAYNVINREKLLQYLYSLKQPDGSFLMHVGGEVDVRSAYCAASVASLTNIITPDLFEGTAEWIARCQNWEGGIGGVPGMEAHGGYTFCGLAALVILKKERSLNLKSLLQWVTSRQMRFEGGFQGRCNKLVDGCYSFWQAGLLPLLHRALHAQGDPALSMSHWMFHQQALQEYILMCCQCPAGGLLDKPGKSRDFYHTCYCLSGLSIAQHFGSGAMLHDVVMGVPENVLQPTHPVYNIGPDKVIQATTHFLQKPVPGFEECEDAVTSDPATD

| SMILES | FPT inhibition at the concentration in parentheses |
| --- | --- |
| O=C(Nc1cc[n+]([O-])cc1)N1CCC(=C2c3ccc(Cl)cc3CCc3cc(Cl)ccc32)CC1 [Example 422-A] | 22 (1.2) |

Same assay, conditions: (1.3) μM

| SMILES | FPT inhibition at the concentration in parentheses |
| --- | --- |
| CN1CCC(CC(=O)N2CCC(=C3c4ccc(Cl)cc4CCc4cc(F)cnc43)CC2)CC1 [Example 411-R] | 29 (1.30) |
| O=C(Cc1cc[n+]([O-])cc1)N1CCC(=C2c3ccc(Cl)cc3CCc3cc(F)cnc32)CC1 [Example 411-N] | 44(1.3) |

Same assay, conditions: (4) μM

| SMILES | FPT inhibition at the concentration in parentheses |
| --- | --- |
| CC(C)(C(=O)N1CCC(=C2c3ccc(Cl)cc3CCc3cc(F)cnc32)CC1)c1cc[n+]([O-])cc1 [Example 411-O] | 39 (4) |

Same assay, conditions: Ras-CVLS farnesylation, partially purified rat brain FPT; read-out: FPT IC50

| IC50 [µM] | SMILES |
| --- | --- |
| 0.7 | CC1(C2CCN(C(=O)Cc3ccncc3)CC2)c2ccc(Cl)cc2CCc2cccnc21 (stereo not shown) [Example 410] |
| 2.3 | O=C(Nc1cccnc1)N1CCC(=C2c3ccc(Cl)cc3C=Cc3cccnc32)CC1 [Example 277] |
| 9.8 | O=C(Nc1cccnc1)N1CCC(=C2c3ccc(Cl)cc3CCc3c(O)ccnc32)CC1 [Example 263] |
| 1.9 | CN1CCN(CC(=O)N2CCC(=C3c4ccc(Cl)cc4CCc4cc(Br)cnc43)CC2)CC1 [Example 410-J] |
| 1.7 | CC1(C2CCN(C(=O)Cc3cc[n+]([O-])cc3)CC2)c2ccc(Cl)cc2CCc2cccnc21 (stereo not shown) [Example 401-A] |
| 2.6 | N#CCC(=O)N1CCC(=C2c3ccc(Cl)cc3CCc3cc(Br)cnc32)CC1 [Example 400-A] |
| 1.8 | O=C(Cc1ccnc(-n2ccnc2)c1)N1CCC(=C2c3ccc(Cl)cc3CCc3cc(Br)cnc32)CC1 [Example 410-T] |
| 1000 | CCN(CC)c1cnc2c(c1)CCc1cc(Cl)ccc1C2=C1CCN(C(=O)Cc2ccncc2)CC1 [Example 424-A] |
| 10.8 | O=C(Cc1cccnc1)N1CCC(=C2c3ccc(Cl)cc3CCc3c(SCc4ccccc4)ccnc32)CC1 [Example 258] |
| 4.3 | O=C(Cc1cccnc1)N1CCC(=C2c3ccc(Cl)cc3CCc3c2ncc(Br)c3O)CC1 [Example 253] |

Second part, the compound before the results:

| SMILES | IC50 [µM] |
| --- | --- |
| NC1CCC(C(=O)N2CCC(=C3c4ccc(Cl)cc4CCc4cccnc43)CC2)CC1 (stereo not shown) [Example 105] | 5 |
| O=C(/C=C/c1ccncc1)N1CCC(=C2c3ccc(Cl)cc3CCc3cccnc32)CC1 [Example 99] | 4.4 |
| O=C(c1cc([N+](=O)[O-])c(O)c([N+](=O)[O-])c1)N1CCC(=C2c3ccc(Cl)cc3CCc3cccnc32)CC1 [Example 31] | 8.3 |
| CSc1ccc(C(=O)N2CCC(=C3c4ccc(Cl)cc4CCc4cccnc43)CC2)cc1 [Example 108] | 6.9 |
| CC(=O)N1CCC(=C2c3ccccc3CCc3c2[nH]c2ccccc32)CC1 [Example 140] | 15.7 |
| O=C(c1cccnc1O)N1CCC(=C2c3ccc(Cl)cc3CCc3cccnc32)CC1 [Example 114] | 11.1 |
| CC(C)(C)OC(=O)N1CCC(CC(=O)N2CCN(C3c4ccc(Cl)cc4CCc4cccnc43)CC2)CC1 (stereo not shown) [Example 193] | 7.4 |
| O=C(Cc1ccncc1)N1CCC(=C2c3ccncc3CCc3cc(Cl)ccc32)CC1 [Example 5.39] | 2.3 |
| O=C(c1cc[n+]([O-])c2ccccc12)N1CCC(=C2c3ccc(Cl)cc3CCc3cccnc32)CC1 [Example 34] | 9.8 |
| CN(C)c1ccc(C(=O)N2CCC(=C3c4ccc(Cl)cc4CCc4cccnc43)CC2)cc1 [Example 17] | 4.8 |
| O=C(c1ccc(NS(=O)(=O)C(F)(F)F)cc1)N1CCC(=C2c3ccc(Cl)cc3CCc3cccnc32)CC1 [Example 111] | 8.5 |
| O=C(c1ccc(=O)[nH]c1)N1CCC(=C2c3ccccc3CCc3ccccc32)CC1 [Example 152] | 15 |
| CC(=O)N1CCC(=C2c3ccc(Cl)cc3CCc3c(Cl)cc[n+]([O-])c32)CC1 [Example 74C] | 11.6 |
| CC(=O)N1CCN(C2c3ccccc3CCc3ccccc32)CC1 [Example 153] | 29.6 |
| O=C(C1CCSCC1)N1CCC(=C2c3ccc(Cl)cc3CCc3cccnc32)CC1 [Example 103] | 4.6 |
| Nc1ccc(C(=O)N2CCC(=C3c4ccc(Cl)cc4CCc4cccnc43)CC2)cc1 [Example 21] | 5.9 |
| CC(=O)N1CCC(=C2c3cc4ccccc4cc3CCc3cccnc32)CC1 [Example 71A] | 17.6 |

Same assay, conditions: Table 22; no key shown; presumably % inhibition (concentration in μM)

| SMILES | FPT IC50 (μM) column, second line printed as 'x (y)' |
| --- | --- |
| CCN(CC)c1cnc2c(c1)CCc1cc(Cl)ccc1C2=C1CCN(C(=O)Cc2ccncc2)CC1 [Example 424-A] | 22 (4) |

Same assay, conditions: at 10 μM

| SMILES | FPT inhibition [% @] |
| --- | --- |
| O=C(N[C@@H](Cc1ccccc1)C(=O)N1CCN(C2c3ccc(Cl)cc3CCc3cccnc32)CC1)OCc1ccccc1 (stereo partly shown) [Example 213] | 23 |
| CC(C)(C)OC(=O)N[C@@H](Cc1ccccc1)C(=O)N1CCN(C2c3ccc(Cl)cc3CCc3cccnc32)CC1 (stereo partly shown) [Example 214] | 0 |

Same assay, conditions: at 11.8 μM

| SMILES | FPT inhibition [% at 11.8 μM] |
| --- | --- |
| O=C(Cc1c[nH]c2ccccc12)N1CCC(=C2c3ccc(Cl)cc3CCc3cccnc32)CC1 [Example 129] | 32 |

Same assay, conditions: at 12 μM

| SMILES | FPT inhibition [% @] |
| --- | --- |
| O=C(NCC(=O)N1CCN(C2c3ccc(Cl)cc3CCc3cccnc32)CC1)OCc1ccccc1 (stereo not shown) [Example 207] | 40 |

Same assay, conditions: at 14.2 μM

| SMILES | FPT inhibition [% at 14.2 μM] |
| --- | --- |
| COc1cc[n+]([O-])c2c1CCc1cc(Cl)ccc1C2=C1CCN(C(C)=O)CC1 [Example 74A] | 25 |

Same assay, conditions: at 15.2 μM

| SMILES | FPT inhibition [% at 15.2 μM] |
| --- | --- |
| CC(=O)c1cnc2c(c1)CCc1cc(Cl)ccc1C2=C1CCN(C(C)=O)CC1 [Example 139] | 37 |

Same assay, conditions: at 16.9 μM

| SMILES | FPT inhibition [% at 16.9 μM] |
| --- | --- |
| CC(=O)N1CCC(C2c3ccc(Cl)cc3CCc3cccnc32)CC1 (stereo not shown) [Example 150] | 38 |

Same assay, conditions: at 18.8 μM

| SMILES | FPT inhibition [% at 18.8 μM] |
| --- | --- |
| CC(=O)N1CCC(=C2c3ccccc3CCc3cccnc32)CC1 [Example 147] | 0 |

Same assay, conditions: at 50 μM

| SMILES | FPT inhibition [% at 50 μM] |
| --- | --- |
| CC(=O)N1CCC(=C2c3ccc(Cl)cc3CCc3cc(C(C)(C)C)cnc32)CC1 [Example 66] | 22 |

Same assay, conditions: enzyme inhibition; read-out: FPT IC50

| SMILES | IC50 [µM] |
| --- | --- |
| CC(C)(C(=O)N1CCC(=C2c3ccc(Cl)cc3CCc3cc(F)cnc32)CC1)c1cc[n+]([O-])cc1 [Example 411-O] | ~5 |
| CN1CCCC(CC(=O)N2CCN([C@@H]3c4ccc(Cl)cc4CCc4cccnc43)CC2)C1 (stereo partly shown) [Example 425-R] | 1.7 |
| CNC(=O)N1CCCC(CC(=O)N2CCN(C3c4ccc(Cl)cc4CCc4cccnc43)CC2)C1 (stereo not shown) [Example 431-G] | 7 |
| O=C(Cc1ccncc1)N1CCC(=C2c3ccc(Cl)cc3CCc3ccc(O)nc32)CC1 [Example 411-C] | 6 |
| CC(=O)ON=C1Cc2cccnc2C(=C2CCN(C(=O)Cc3ccncc3)CC2)c2ccc(Cl)cc21 [Example 420] | 0.23 |
| CN1CCC(CC(=O)N2CCC(=C3c4ccc(Cl)cc4CCc4cc(F)cnc43)CC2)CC1 [Example 411-R] | ~4 |
| N#Cc1cnc2c(c1)CCc1cc(Cl)ccc1C2=C1CCN(C(=O)Cc2ccncc2)CC1 [Example 406] | 1.4 |
| O=C(Cc1ccncc1)N1CCC(=C2c3cc([N+](=O)[O-])c(Cl)cc3CCc3cccnc32)CC1 [Example 411-F] | 1.28 |
| CN1CCC(CC(=O)N2CCN([C@@H]3c4ccc(Cl)cc4CCc4cccnc43)CC2)CC1 [Example 425-M] | 1.8 |
| COC(=O)N1CCCC(CC(=O)N2CCN(C3c4ccc(Cl)cc4CCc4cccnc43)CC2)C1 (stereo not shown) [Example 430-A] | 7 |
| O=C(Nc1cc[n+]([O-])cc1)N1CCN(C2c3ccc(Cl)cc3CCc3cccnc32)CC1 (stereo not shown) [Example 427] | 1.8 |
| O=C(Nc1cc[n+]([O-])cc1)N1CCC(=C2c3ccc(Cl)cc3CCc3cc(Cl)ccc32)CC1 [Example 422-A] | > 1.2 |
| CN1CCCC(NC(=O)N2CCN(C3c4ccc(Cl)cc4CCc4cccnc43)CC2)C1 (stereo not shown) [Example 432] | 0.66 |
| O=C(Cc1cc[n+]([O-])cc1)N1CCC(=C2c3ccc(Cl)cc3CCc3cc(F)cnc32)CC1 [Example 411-N] | ~2 |
| O=C(Cc1cc[n+]([O-])cc1)N1CCC(=C2c3ccc(Cl)cc3CCc3cc(Cl)ccc32)CC1 [Example 422] | 0.6 |
| O=C(Nc1ccccc1)N1CCC(=C2c3ccc(Cl)cc3CCc3c(Cl)ccnc32)CC1 [Example 414-A] | 1.9 |
| O=C(Cc1ccnc(N2CCCCC2)c1)N1CCC(=C2c3ccc(Cl)cc3CCc3cc(Br)cnc32)CC1 [Example 411-FF] | 1.8 |
